From PubChem BioAssay (NCI)
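Test compounds were applied to cells in 96-well plates for 48 hours at 5 doses. GI50: concentration for 50% inhibition of growth. TGI: concentration producing complete growth inhibition.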

Legend:
Experiment in all cases: DTP human tumour cell line panel, 48 h
786-0 renal = system: 786-0 renal
A498 renal = system: A498 renal
A549 NSCLC = system: A549 NSCLC
ACHN renal = system: ACHN renal
BT-549 breast = system: BT-549 breast
CAKI-1 renal = system: CAKI-1 renal
CCRF-CEM leukemia = system: CCRF-CEM leukemia
COLO 205 colon = system: COLO 205 colon
DU-145 prostate = system: DU-145 prostate
EKVX NSCLC = system: EKVX NSCLC
HCC-2998 colon = system: HCC-2998 colon
HCT-116 colon = system: HCT-116 colon
HCT-15 colon = system: HCT-15 colon
HL-60(TB) leukemia = system: HL-60(TB) leukemia
HOP-62 NSCLC = system: HOP-62 NSCLC
HOP-92 NSCLC = system: HOP-92 NSCLC
HS 578T breast = system: HS 578T breast
HT29 colon = system: HT29 colon
IGROV1 ovarian = system: IGROV1 ovarian
K-562 leukemia = system: K-562 leukemia
KM12 colon = system: KM12 colon
LOX IMVI melanoma = system: LOX IMVI melanoma
M14 melanoma = system: M14 melanoma
MALME-3M melanoma = system: MALME-3M melanoma
MCF7 breast = system: MCF7 breast
MDA-MB-231 breast = system: MDA-MB-231 breast
MDA-MB-435 = system: MDA-MB-435
MOLT-4 leukemia = system: MOLT-4 leukemia
NCI-H226 lung = system: NCI-H226 lung
NCI-H460 lung = system: NCI-H460 lung
NCI-H522 lung = system: NCI-H522 lung
NCI/ADR-RES ovarian = system: NCI/ADR-RES ovarian
OVCAR-3 ovarian = system: OVCAR-3 ovarian
OVCAR-4 ovarian = system: OVCAR-4 ovarian
OVCAR-5 ovarian = system: OVCAR-5 ovarian
OVCAR-8 ovarian = system: OVCAR-8 ovarian
PC-3 prostate = system: PC-3 prostate
RPMI-8226 leukemia = system: RPMI-8226 leukemia
RXF 393 renal = system: RXF 393 renal
SF-268 CNS = system: SF-268 CNS
SF-295 CNS = system: SF-295 CNS
SF-539 CNS = system: SF-539 CNS
SK-MEL-2 melanoma = system: SK-MEL-2 melanoma
SK-MEL-28 melanoma = system: SK-MEL-28 melanoma
SK-MEL-5 melanoma = system: SK-MEL-5 melanoma
SK-OV-3 ovarian = system: SK-OV-3 ovarian
SN12C renal = system: SN12C renal
SNB-19 CNS = system: SNB-19 CNS
SNB-75 CNS = system: SNB-75 CNS
SR leukemia = system: SR leukemia
SW-620 colon = system: SW-620 colon
T-47D breast = system: T-47D breast
TK-10 renal = system: TK-10 renal
U251 CNS = system: U251 CNS
UACC-257 melanoma = system: UACC-257 melanoma
UACC-62 melanoma = system: UACC-62 melanoma
UO-31 renal = system: UO-31 renal

Work on `CC(=O)N(O)CCCCCNC(=O)CCC(=O)N(O)CCCCCNC(=O)CCC(=O)N(O)CCCCCN(CCCCCCCCCC[P+](c1ccccc1)(c1ccccc1)c1ccccc1)CCCCCCCCCC[P+](c1ccccc1)(c1ccccc1)c1ccccc1` yielded a GI50 (786-0 renal) of 7.1 µM, a TGI (786-0 renal) of 26.6 µM and a GI50 (A498 renal) of 18.9 µM. It also gave a TGI (A498 renal) of 81.2 µM, a GI50 (A549 NSCLC) of 3.47 µM and a TGI (A549 NSCLC) of over 100 µM. For the same compound, the GI50 (ACHN renal) was 16.1 µM, the TGI (ACHN renal) was 69.9 µM and the GI50 (BT-549 breast) was 2.15 µM. The TGI (BT-549 breast) was 9 µM, the GI50 (CAKI-1 renal) was 10.8 µM and the TGI (CAKI-1 renal) was 24.4 µM. For the same compound, the GI50 (CCRF-CEM leukemia) was 2.5 µM, the TGI (CCRF-CEM leukemia) was 23.4 µM and the GI50 (COLO 205 colon) was 1.58 µM. The TGI (COLO 205 colon) was 3.55 µM, the GI50 (DU-145 prostate) was 5.21 µM and the TGI (DU-145 prostate) was 25.4 µM. For the same compound, the GI50 (EKVX NSCLC) was 1.35 µM, the TGI (EKVX NSCLC) was 13 µM and the GI50 (HCC-2998 colon) was 3.45 µM. It also gave a TGI (HCC-2998 colon) of 13.9 µM, a GI50 (HCT-116 colon) of 2.93 µM and a TGI (HCT-116 colon) of 23.8 µM. The GI50 (HCT-15 colon) was 14.6 µM, the TGI (HCT-15 colon) was 43.9 µM and the GI50 (HL-60(TB) leukemia) was 2.04 µM. For the same compound, the TGI (HL-60(TB) leukemia) was 6.01 µM, the GI50 (HOP-62 NSCLC) was 3.46 µM and the TGI (HOP-62 NSCLC) was 16.1 µM. The GI50 (HOP-92 NSCLC) was 1.49 µM, the TGI (HOP-92 NSCLC) was 6.82 µM and the GI50 (HS 578T breast) was 3.77 µM. For the same compound, the TGI (HS 578T breast) was 30.8 µM, the GI50 (HT29 colon) was 2.84 µM and the TGI (HT29 colon) was 11.4 µM. The GI50 (IGROV1 ovarian) was 2.83 µM, the TGI (IGROV1 ovarian) was 16.8 µM and the GI50 (K-562 leukemia) was 1.47 µM. For the same compound, the TGI (K-562 leukemia) was 15.4 µM, the GI50 (KM12 colon) was 3.43 µM and the TGI (KM12 colon) was 21.1 µM. It also gave a GI50 (LOX IMVI melanoma) of 3.21 µM, a TGI (LOX IMVI melanoma) of 10.2 µM and a GI50 (M14 melanoma) of 4.11 µM. For the same compound, the TGI (M14 melanoma) was 21.9 µM, the GI50 (MALME-3M melanoma) was 4.11 µM and the TGI (MALME-3M melanoma) was 20.3 µM. The GI50 (MCF7 breast) was 2.29 µM, the TGI (MCF7 breast) was 10.8 µM and the GI50 (MDA-MB-231 breast) was 4.13 µM. The TGI (MDA-MB-231 breast) was 19.6 µM, the GI50 (MDA-MB-435) was 2.76 µM and the TGI (MDA-MB-435) was 11.3 µM. It also gave a GI50 (MOLT-4 leukemia) of 3.52 µM, a TGI (MOLT-4 leukemia) of 18.9 µM and a GI50 (NCI-H226 lung) of 5.02 µM. The TGI (NCI-H226 lung) was 23.9 µM, the GI50 (NCI-H460 lung) was 2.38 µM and the TGI (NCI-H460 lung) was 11.5 µM. It also gave a GI50 (NCI-H522 lung) of 2.52 µM, a TGI (NCI-H522 lung) of 10.7 µM and a GI50 (NCI/ADR-RES ovarian) of 31.3 µM. The TGI (NCI/ADR-RES ovarian) was over 100 µM, the GI50 (OVCAR-3 ovarian) was 4.22 µM and the TGI (OVCAR-3 ovarian) was 23.2 µM. For the same compound, the GI50 (OVCAR-4 ovarian) was 2.73 µM, the TGI (OVCAR-4 ovarian) was 17.5 µM and the GI50 (OVCAR-5 ovarian) was 3.46 µM. It also gave a TGI (OVCAR-5 ovarian) of 15.5 µM, a GI50 (OVCAR-8 ovarian) of 3.07 µM and a TGI (OVCAR-8 ovarian) of 14.8 µM. It also gave a GI50 (PC-3 prostate) of 2.95 µM, a TGI (PC-3 prostate) of 13.4 µM and a GI50 (RPMI-8226 leukemia) of 2.12 µM. The TGI (RPMI-8226 leukemia) was 9.63 µM, the GI50 (RXF 393 renal) was 3.3 µM and the TGI (RXF 393 renal) was 14.5 µM. It also gave a GI50 (SF-268 CNS) of 4.6 µM, a TGI (SF-268 CNS) of 26.4 µM and a GI50 (SF-295 CNS) of 2.99 µM. It also gave a TGI (SF-295 CNS) of 14.1 µM, a GI50 (SF-539 CNS) of 2.8 µM and a TGI (SF-539 CNS) of 10.4 µM. It also gave a GI50 (SK-MEL-2 melanoma) of 2.61 µM, a TGI (SK-MEL-2 melanoma) of 7.86 µM and a GI50 (SK-MEL-28 melanoma) of 3.62 µM. It also gave a TGI (SK-MEL-28 melanoma) of 18.3 µM, a GI50 (SK-MEL-5 melanoma) of 3.65 µM and a TGI (SK-MEL-5 melanoma) of 15.8 µM. It also gave a GI50 (SK-OV-3 ovarian) of 2.3 µM, a TGI (SK-OV-3 ovarian) of 6.15 µM and a GI50 (SN12C renal) of 2.88 µM. The TGI (SN12C renal) was 11.1 µM, the GI50 (SNB-19 CNS) was 3.09 µM and the TGI (SNB-19 CNS) was 14.1 µM. For the same compound, the GI50 (SNB-75 CNS) was 2.69 µM, the TGI (SNB-75 CNS) was 11.4 µM and the GI50 (SR leukemia) was 2.71 µM. It also gave a TGI (SR leukemia) of 11.2 µM, a GI50 (SW-620 colon) of 4.18 µM and a TGI (SW-620 colon) of 16.5 µM. For the same compound, the GI50 (T-47D breast) was 1.78 µM, the TGI (T-47D breast) was 8.85 µM and the GI50 (TK-10 renal) was 9 µM. The TGI (TK-10 renal) was 34.2 µM, the GI50 (U251 CNS) was 2 µM and the TGI (U251 CNS) was 13 µM. It also gave a GI50 (UACC-257 melanoma) of 2.66 µM, a TGI (UACC-257 melanoma) of 10 µM and a GI50 (UACC-62 melanoma) of 3.35 µM. The TGI (UACC-62 melanoma) was 15.3 µM, the GI50 (UO-31 renal) was 16 µM and the TGI (UO-31 renal) was over 100 µM.
